Results published in patent publication US9688671B2, “Metalloenzyme inhibitor compounds” (Viamet Pharmaceuticals, Inc., priority 2013, dated 2017).
In brackets after ≈: the same amount, converted by molar mass.

Legend:
C. albicans = test: Minimum Inhibitory Concentration (MIC), C. albicans growth inhibition (CLSI M27-A2); format: cell-based; details: Candida albicans; about 50% growth reduction; approximately 48 h at 35±1° C.; RPMI+MOPS
Method: Compounds were assessed for their ability to inhibit the growth of common strains of fungus, C. albicans using a standardized procedure (CLSI M27-A2). Stock solutions of the test compounds and standards were prepared in DMSO at 1600 μg/mL (C. albicans). Eleven, serial, one-half dilutions of compounds were prepared in 96-well plates in RPMI+MOPS. The assay concentration ranges were 1-0.001 μg/mL (C. albicans). Cell suspensions of C. albicans were prepared and added to each well at concentrations of approximately 3.7×10^3 colony-forming-units per milliliter (cfu/mL). All testing was in duplicate. The inoculated plates were incubated for approximately 48 h at 35±1° C. At the completion of incubation the wells of each plate were evaluated visually for the presence of fungal growth. […] For voriconazole the MIC was the concentration which reduced C. albicans growth by 50% (per CLSI, M27-A2). For QC purposes C. krusei isolate ATCC 6258 (4.0×10^3 cfu/mL) was included in the VOR assay.

A. fumigatus = A. fumigatus MIC (CLSI M38-A2); details: Aspergillus fumigatus, read-out: Aspergillus MIC (Aspergillus fumigatus MIC50)
Coccidioides posadasii = test: microbe, parasite or virus in culture; format: cell-based; details: 48 h

N#Cc1ccc(CC(=O)c2ccc(C#Cc3ccc(C(F)(F)C(O)(Cn4cnnn4)c4ccc(F)cc4F)nc3)cc2)cc1 (racemic) [Example 1, 4-(2-(4-((6-(2-(2,4-difluorophenyl)-1,1-difluoro-2-hydroxy-3-(1H-tetrazol-1-yl)propyl)pyridin-3-yl)ethynyl)phenyl)-2-oxoethyl)benzonitrile] was tested, and the MIC50 (C. albicans) was 0.004 µg/mL (≈ 0.00671 µM) and the MIC50 (A. fumigatus) was 0.5 µg/mL (≈ 0.838 µM).
In the case of N#Cc1ccc(NCc2ccc(C#Cc3ccc(C(F)(F)C(O)(Cn4cnnn4)c4ccc(F)cc4F)nc3)cc2)cc1 (racemic) [Example 2, 4-(4-((6-(2-(2,4-difluorophenyl)-1,1-difluoro-2-hydroxy-3-(1H-tetrazol-1-yl)propyl)pyridin-3-yl)ethynyl)benzylamino)benzonitrile], the MIC50 (C. albicans) is reported as 0.016 µg/mL (≈ 0.0274 µM) and the MIC50 (A. fumigatus) is reported as 1 µg/mL (≈ 1.71 µM).
Compound OC(Cn1cnnn1)(c1ccc(F)cc1F)C(F)(F)c1ccc(C#Cc2ccc(OCc3ccc(C(F)(F)F)s3)cc2)cn1 (racemic) [Example 5, 2-(2,4-difluorophenyl)-1,1-difluoro-3-(1H-tetrazol-1-yl)-1-(5-((4-((5-(trifluoromethyl)thiophen-2-yl)methoxy)phenyl)ethynyl)pyridin-2-yl)propan-2-ol] has an MIC50 (Coccidioides posadasii) of 0.12 µg/mL (≈ 0.189 µM).
In the case of OC(Cn1cnnn1)(c1ccc(F)cc1F)C(F)(F)c1ccc(C#Cc2ccc(OCc3ccc(F)s3)cc2)cn1 (racemic) [Example 6, 2-(2,4-difluorophenyl)-1,1-difluoro-1-(5-((4-((5-fluorothiophen-2-yl)methoxy)phenyl)ethynyl)pyridin-2-yl)-3-(1H-tetrazol-1-yl)propan-2-ol], the MIC50 (C. albicans) is reported as 0.008 µg/mL (≈ 0.0137 µM) and the MIC50 (A. fumigatus) is reported as 0.5 µg/mL (≈ 0.857 µM).
OC(Cn1cnnn1)(c1ccc(F)cc1F)C(F)(F)c1ccc(C#Cc2ccc(CNc3ccc(Cl)cc3)cc2)cn1 (racemic) [Example 7, 1-(5-((4-((4-chlorophenylamino)methyl)phenyl)ethynyl)pyridin-2-yl)-2-(2,4-difluorophenyl)-1,1-difluoro-3-(1H-tetrazol-1-yl)propan-2-ol] showed an MIC50 (Coccidioides posadasii) of 0.12 µg/mL (≈ 0.202 µM).
Compound OC(Cn1cnnn1)(c1ccc(F)cc1F)C(F)(F)c1ccc(C#Cc2ccc(CNc3ccc(F)cc3)cc2)cn1 (racemic) [Example 8, 2-(2,4-difluorophenyl)-1,1-difluoro-1-(5-((4-((4-fluorophenylamino)methyl)phenyl)ethynyl)pyridin-2-yl)-3-(1H-tetrazol-1-yl)propan-2-ol] has an MIC50 (C. albicans) of 0.004 µg/mL (≈ 0.00694 µM) and an MIC50 (A. fumigatus) of 0.5 µg/mL (≈ 0.867 µM).
With CN(C)Cc1ccc(COc2ccc(C#Cc3ccc(C(F)(F)C(O)(Cn4cnnn4)c4ccc(F)cc4F)nc3)cc2)cc1 (racemic) [Example 11, 2-(2,4-difluorophenyl)-1-(5-((4-(4-((dimethylamino)methyl)benzyloxy)phenyl)ethynyl)pyridin-2-yl)-1,1-difluoro-3-(1H-tetrazol-1-yl)propan-2-ol] the MIC50 (C. albicans) was 0.016 µg/mL (≈ 0.0259 µM) and the MIC50 (A. fumigatus) was 0.5 µg/mL (≈ 0.811 µM).
With OC(Cn1cnnn1)(c1ccc(F)cc1F)C(F)(F)c1ccc(C#Cc2ccc(OCc3ccc(Cn4cccn4)cc3)cc2)cn1 (racemic) [Example 13] the MIC50 (C. albicans) was 0.016 µg/mL (≈ 0.025 µM) and the MIC50 (A. fumigatus) was 0.25 µg/mL (≈ 0.391 µM).
C[C@@H](c1ncncc1F)[C@](O)(Cn1cncn1)c1ccc(F)cc1F [Voriconazole, voriconazole, reference compound] showed an MIC50 (C. albicans) of 0.016 µg/mL (≈ 0.0458 µM) and an MIC50 (A. fumigatus) of 0.25 µg/mL (≈ 0.716 µM).
